Patent US5198451A, “Heterocyclic carboxylic acids” (Novo Nordisk A/S, priority 1989, dated 1993)
Counter-ions that a name gives are not always drawn.

How the values were obtained:
[^3 H]-GABA uptake = Inhibition of [^3 H]-GABA uptake in vitro (Male Wistar rat cortical tissue homogenate); type: biochemical; conditions: tris HCl buffer pH 7.5, 60 min at 30° C.
Description: Values for in vitro inhibition of [^3 H]-GABA uptake for these compounds were assessed essentially by the method of Fjalland (Acta Pharmacol.Toxicol. 42 (1978) 73-76). Male Wistar rat cortical tissue was gently homogenized by hand using a glass/PTFE homogenizer in 10 volumes of 0.32 M sucrose. Incubation was performed in a 40 mM tris HCl buffer (pH 7.5 at 30° C.) containing […], […], 4 mM MgSO4, 2.3 mM CaCl2 and 10 mM glucose, for 60 min. at 30° C.) Values for inhibition of GABA uptake for some representative compounds are recorded in Table I.

GABA uptake = conditions: cited from earlier work; for inhibition of GABA uptake, oral activity: Yunger, L. M. et al., J. Pharm. Exp. Therap. 228 (1984) 109
[1] = background art; cited from earlier work

Work on `O=C(O)[C@@H]1CCCN(CCOCCC(c2ccccc2)c2cccc(C(F)(F)F)c2)C1` (stereo partly drawn) [Example 18, (R)-N-(2-(3-Phenyl-3-(3-(trifluoromethyl)phenyl)-1-propyloxy)ethyl)-3-piperidinecarboxylic acid hydrochloride] yielded an IC50 ([^3 H]-GABA uptake) of 43 nM.
For `O=C(O)C1CCCN(CCC=C(c2ccccc2)c2ccccc2)C1` (stereo not drawn) [SK&F 89976A, N-(4,4-diphenyl-3-buten-1-yl)nipecotic acid], the “inhibition of GABA uptake, oral activity” value (GABA uptake) is listed as “orally active inhibitors of GABA uptake”.
With `O=C(O)C1=CCCN(CCOCCC(c2ccccc2)c2ccccc2)C1` [Example 16, N-(2-(3,3-Diphenyl-1-propyloxy)ethyl)-1,2,5,6-tetrahydro-3-pyridinecarboxylic acid hydrochloride] the IC50 ([^3 H]-GABA uptake) was 49 nM.
For `O=C(O)C1CCCN(CCC=C(c2ccccc2)c2cccs2)C1` (stereo not drawn) [SK&F 100604J, N-(4-phenyl-4-(2-thienyl)-3-buten-1-yl)nipecotic acid], the “inhibition of GABA uptake, oral activity” value (GABA uptake) is listed as “orally active inhibitors of GABA uptake”.
For `O=C(O)CC1CCN(CCC=C(c2ccccc2)c2ccccc2)C1` (stereo not drawn) [SK&F 100561, N-(4,4-diphenyl-3-buten-1-yl)homo-β-proline], the “inhibition of GABA uptake, oral activity” value (GABA uptake) is listed as “orally active inhibitors of GABA uptake”.
Work on `O=C(O)[C@@H]1CCCN(CCCCCCCN(c2ccccc2)c2ccccc2)C1` [Example 8, (R)-N-(7-(Diphenylamino)-1-heptyl)-3-piperidinecarboxylic acid hydrochloride] yielded an IC50 ([^3 H]-GABA uptake) of 222 nM.
Work on `O=C(O)[C@@H]1CCCN(CCOCCN(c2ccccc2)c2ccccc2)C1` [Example 2, (R)-N-(2-(2-(Diphenylamino)ethoxy)ethyl)-3-piperidinecarboxylic acid hydrochloride] yielded an IC50 ([^3 H]-GABA uptake) of 108 nM.
For `O=C(O)C1CCCNC1` (stereo not drawn) [nipecotic acid, piperidine-3-carboxylic acid], the “ability to cross the blood-brain barrier” value [1] is listed as “unable to cross the blood-brain barrier” and the “inhibitor of GABA uptake from the synaptic cleft into presynaptic nerve terminals and glial cells” value (GABA uptake; background art) is listed as “well-known and potent inhibitor of GABA uptake”.
In the case of `O=C(O)C1=CCCN(CCC=C(c2ccccc2)c2ccccc2)C1` [SK&F 100330A, N-(4,4-diphenyl-3-buten-1-yl)guvacine], the “inhibition of GABA uptake, oral activity” value (GABA uptake) is given as “orally active inhibitors of GABA uptake”.
With `O=C(O)[C@@H]1CCCN(CCCCCCN(c2ccccc2)c2ccccc2)C1` [Example 4, (R)-N-(6-(Diphenylamino)-1-hexyl)-3-piperidinecarboxylic acid hydrochloride] the IC50 ([^3 H]-GABA uptake) was 670 nM.
For `O=C(O)[C@@H]1CCCN(CCOCCC(c2ccccc2)c2ccccc2)C1` [Example 14, (R)-N-(2-(3,3-Diphenyl-1-propyloxy)ethyl)-3-piperidinecarboxylic acid hydrochloride], the IC50 ([^3 H]-GABA uptake) was 51 nM.
